# Laboratory results taken from US9163012B2, “Carbamate and urea inhibitors of 11β-hydroxysteroid dehydrogenase 1” (Vitae Pharmaceuticals, Inc., priority 2009, dated 2015).
# Where two headings read alike, the source gives them in different places.
# Molecular target: 11β-HSD1 (Homo sapiens (Human), UniProt P28845)
# Test: Biological Test Example 1: inhibition of a microsomal preparation of 11β-HSD1 (SPA)
# Assay type: biochemical
# Method: All reactions were carried out at rt in 96 well clear flexible PET Microbeta plates (PerkinElmer). […] After a 10 minute pre-incubation, 50 μL of enzyme solution containing microsomes isolated from CHO cells overexpressing human 11-HSD1 (10-20 μg/ml of total protein) was added, and the plates were incubated for 90 minutes at rt. The reaction was stopped by adding 50 μl of the SPA beads suspension containing 10 μM […], 5 mg/ml protein A coated YSi SPA beads (GE Healthcare) and 3.3 μg/ml of anti-cortisol antibody (East Coast Biologics) in Superblock buffer (Bio-Rad). The plates were shaken for 120 minutes at rt, and the SPA signal corresponding to [^3H]cortisol was measured on a Microbeta plate reader.
# [1] = Biological Test Example 1, microsomes from CHO cells overexpressing human 11β-HSD1, read-out: IC50 Range
# [2] = Biological Test Example 1, read-out: IC50
# [3] = read-out: Average % inhibition at 100 nM, Biological Test Example 1, 100 nM compound
# [4] = Biological Test Example 1, 100 nM compound
# 11β-HSD1, sequence (P28845 whole entry): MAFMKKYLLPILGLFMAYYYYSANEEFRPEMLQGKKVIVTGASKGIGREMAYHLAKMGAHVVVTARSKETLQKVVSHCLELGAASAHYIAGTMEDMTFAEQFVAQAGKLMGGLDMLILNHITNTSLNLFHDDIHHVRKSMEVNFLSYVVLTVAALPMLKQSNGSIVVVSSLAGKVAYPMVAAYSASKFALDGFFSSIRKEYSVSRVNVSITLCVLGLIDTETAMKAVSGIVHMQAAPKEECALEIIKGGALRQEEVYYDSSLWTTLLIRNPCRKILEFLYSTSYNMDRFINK
Structure (SMILES),IC50 [1],IC50 [2],inhibition at 0.1 µM [3],Average % inhibition at 100 nM [4],further results
"O=C(OC1C2CC3CC(C2)CC1C3)N1CCC(c2ncc(Cl)cn2)C1 (stereo not shown) [EXAMPLE 34, 2-adamantyl 3-(5-chloropyrimidin-2-yl)pyrrolidine-1-carboxylate]",< 0.1 µM,0.00052 µM,96.8%,,
"NC(=O)[C@]12CC3CC(C1)[C@@H](OC(=O)N1CC[C@H](n4c(=O)[nH]c5cc(F)ccc54)C1)C(C3)C2 [EXAMPLE 63, (S)-trans-1-carbamoyl-4-adamantyl 3-(5-fluoro-2-oxo-2,3-dihydro-1H-benzo[d]imidazol-1-yl)pyrrolidine-1-carboxylate]",< 0.1 µM,0.00101 µM,91.2%,,
"Cc1cc(C)nc(C2CCN(C(=O)OC3C4CC5CC3CC(C(N)=O)(C5)C4)C2)n1 (single isomer, unassigned) [EXAMPLE 43 Isomer 2, cis-1-carbamoyl-4-adamantyl 3-(4,6-dimethylpyrimidin-2-yl)pyrrolidine-1-carboxylate]",> 0.1 µM,> 0.1 µM,,−1.8%,
"Cn1ccc(-c2cnc(C3CCN(C(=O)OC4C5CC6CC4CC(C(N)=O)(C6)C5)C3)nc2)cc1=O (single isomer, unassigned; isomer 1) [EXAMPLE 57 Isomer 1, trans-1-carbamoyl-4-adamantyl 3-(5-(1-methyl-2-oxo-1,2-dihydropyridin-4-yl)pyrimidin-2-yl)pyrrolidine-1-carboxylate]",,,,,Average % inhibition at 100 nM: 65.0%; IC50 (read-out: IC50): 0.0505 µM; IC50 (read-out: IC50 Range): < 0.1 µM
"Cn1c(=O)n([C@H]2CCN(C(=O)O[C@H]3C4CC5CC3C[C@](C(N)=O)(C5)C4)C2)c2ccc(C#N)cc21 [EXAMPLE 70, (S)-trans-1-carbamoyl-4-adamantyl 3-(5-cyano-3-methyl-2-oxo-2,3-dihydro-1H-benzo[d]imidazol-1-yl)pyrrolidine-1-carboxylate]",< 0.1 µM,,,,inhibition at 0.1 µM (read-out: Average % inhibition at 100 nM): 91.3%
"NC(=O)[C@]12CC3CC(C1)[C@@H](OC(=O)N1CC[C@H](n4c(=O)[nH]c5cccc(Cl)c54)C1)C(C3)C2 [EXAMPLE 67, (S)-trans-1-carbamoyl-4-adamantyl 3-(7-chloro-2-oxo-2,3-dihydro-1H-benzo[d]imidazol-1-yl)pyrrolidine-1-carboxylate]",< 0.1 µM,0.00068 µM,97.7%,,
"Cc1ccc(C2CCN(C(=O)OC3C4CC5CC3CC(C(N)=O)(C5)C4)C2)nc1 (single isomer, unassigned) [EXAMPLE 35 Isomer 1, trans-1-carbamoyl-4-adamantyl 3-(5-methylpyridin-2-yl)pyrrolidine-1-carboxylate]",< 0.1 µM,0.00161 µM,,91.6%,
"Cc1cc(C)nc(C2CCN(C(=O)OC3C4CC5CC3CC(C(N)=O)(C5)C4)C2)n1 (single isomer, unassigned) [EXAMPLE 43 Isomer 1, trans-1-carbamoyl-4-adamantyl 3-(4,6-dimethylpyrimidin-2-yl)pyrrolidine-1-carboxylate]",< 0.1 µM,0.00572 µM,,86.5%,
"NC(=O)[C@]12CC3CC(C1)[C@@H](OC(=O)N1CCC(c4ncc(Cl)cn4)C1)C(C3)C2 (single isomer, unassigned) [EXAMPLE 26, trans-(1-carbamoyl-4-adamantyl) 3-(5-chloropyrimidin-2-yl)pyrrolidine-1-carboxylate]",< 0.1 µM,0.00112 µM,,94.5%,
"O=C(OC1C2CC3CC(C2)CC1C3)N1CCC(c2nc(-c3ccncc3)cs2)C1 (stereo not shown) [EXAMPLE 51, 2-adamantyl 3-(4-(pyridin-4-yl)thiazol-2-yl)pyrrolidine-1-carboxylate]",< 0.1 µM,0.0007 µM,96.8%,,
"NC(=O)[C@]12CC3CC(C1)[C@@H](OC(=O)N1CC[C@H](n4c(=O)[nH]c5ccccc54)C1)C(C3)C2 [EXAMPLE 60, (S)-trans-1-carbamoyl-4-adamantyl 3-(2-oxo-2,3-dihydro-1H-benzo[d]imidazol-1-yl)pyrrolidine-1-carboxylate]",< 0.1 µM,0.00076 µM,93.9%,,
"Cc1nc2cc(F)ccc2n1C1CCN(C(=O)OC2C3CC4CC2CC(C(N)=O)(C4)C3)C1 (single isomer, unassigned; isomer 1) [EXAMPLE 74 Isomer 1]",,,,,Average % inhibition at 100 nM: 91.9%; IC50 (read-out: IC50): 0.00222 µM; IC50 (read-out: IC50 Range): < 0.1 µM
"Cc1ccnc(C2CCN(C(=O)OC3C4CC5CC3CC(C(N)=O)(C5)C4)C2)n1 (single isomer, unassigned) [EXAMPLE 38 Isomer 1, 1-carbamoyl-4-adamantyl 3-(4-methylpyrimidin-2-yl)pyrrolidine-1-carboxylate]",< 0.1 µM,0.00334 µM,,93.1%,
"NC(=O)C12CC3CC(C1)C(OC(=O)N1CCC(c4nccc(C(F)(F)F)n4)C1)C(C3)C2 (single isomer, unassigned) [EXAMPLE 48 Isomer 2, cis-1-carbamoyl-4-adamantyl 3-(4-(trifluoromethyl)pyrimidin-2-yl)pyrrolidine-1-carboxylate]",,,,16.1%,
"COC(=O)COCC1(c2ccccc2)CCN(C(=O)OC2C3CC4CC(C3)CC2C4)CC1 (stereo not shown) [EXAMPLE 15, 2-adamantyl 4-((2-methoxy-2-oxoethoxy)methyl)-4-phenylpiperidine-1-carboxylate]",< 0.1 µM,0.00539 µM,,,"inhibition at 0.111 µM (Biological Test Example 1, 111 nM compound, read-out: Average % inhibition at 111 nM): 80.6%"
"NC(=O)[C@]12CC3CC(C1)[C@@H](OC(=O)N1CCC(c4ncc(Cl)cn4)C1)C(C3)C2 (single isomer, unassigned) [EXAMPLE 26 Isomer 2, cis-(1-carbamoyl-4-adamantyl) 3-(5-chloropyrimidin-2-yl)pyrrolidine-1-carboxylate]",> 0.1 µM,> 0.1 µM,,26.3%,
"NC(=O)C12CC3CC(C1)C(OC(=O)N1CCC(c4ncc(F)cn4)C1)C(C3)C2 (single isomer, unassigned) [EXAMPLE 41 Isomer 2, 1-carbamoyl-4-adamantyl 3-(5-fluoropyrimidin-2-yl)pyrrolidine-1-carboxylate]",,,,69.0%,
"NC(=O)c1cnc(C2CCN(C(=O)OC3C4CC5CC3CC(C(N)=O)(C5)C4)C2)nc1 (single isomer, unassigned) [EXAMPLE 47 Isomer 1, 1-carbamoyl-4-adamantyl 3-(5-carbamoylpyrimidin-2-yl)pyrrolidine-1-carboxylate]",> 0.1 µM,> 0.1 µM,,6.1%,
"COC(=O)Cn1c(=O)n([C@H]2CCN(C(=O)O[C@H]3C4CC5CC3C[C@](C(N)=O)(C5)C4)C2)c2ccc(F)cc21 [EXAMPLE 72, (S)-trans-1-carbamoyl-4-adamantyl 3-(5-fluoro-3-(2-methoxy-2-oxoethyl)-2-oxo-2,3-dihydro-1H-benzo[d]imidazol-1-yl)pyrrolidine-1-carboxylate]",< 0.1 µM,0.00711 µM,84.9%,,
"O=C(OC1C2CC3CC1CC(O)(C3)C2)N1CCC(c2ccncc2)C1 (stereo not shown) [EXAMPLE 21, 1-hydroxy-4-adamantyl 3-(pyridin-4-yl)pyrrolidine-1-carboxylate]",< 0.1 µM,0.0208 µM,81.4%,,
"NC(=O)[C@]12CC3CC(C1)[C@@H](OC(=O)N1CCC(c4ncc(Cl)cn4)C1)C(C3)C2 (single isomer, unassigned) [EXAMPLE 26 Isomer 1b, (1-carbamoyl-4-adamantyl) 3-(5-chloropyrimidin-2-yl)pyrrolidine-1-carboxylate]",< 0.1 µM,0.00191 µM,,84.2%,
"Cn1ccc(-c2cnc(C3CCN(C(=O)OC4C5CC6CC4CC(C(N)=O)(C6)C5)C3)nc2)cc1=O (single isomer, unassigned) [EXAMPLE 57 Isomer 2, 1-carbamoyl-4-adamantyl 3-(5-(1-methyl-2-oxo-1,2-dihydropyridin-4-yl)pyrimidin-2-yl)pyrrolidine-1-carboxylate]",> 0.1 µM,> 0.1 µM,18.1%,,
"Cn1c(=O)n([C@H]2CCN(C(=O)O[C@H]3C4CC5CC3C[C@](C(N)=O)(C5)C4)C2)c2c(Cl)cccc21 [EXAMPLE 71, (S)-trans-1-carbamoyl-4-adamantyl 3-(7-chloro-3-methyl-2-oxo-2,3-dihydro-1H-benzo[d]imidazol-1-yl)pyrrolidine-1-carboxylate]",< 0.1 µM,0.00067 µM,96.6%,,
"NC(=O)[C@]12CC3CC(C1)[C@@H](OC(=O)N1CC[C@H](Oc4ncc(F)cc4F)C1)C(C3)C2 [EXAMPLE 2, (S)-(trans-(1-carbamoyl-4-adamantyl)) 3-(3,5-difluoropyridin-2-yloxy)pyrrolidine-1-carboxylate]",< 0.1 µM,0.00068 µM,96.2%,,
"NC(=O)c1cnc(C2CCN(C(=O)OC3C4CC5CC3CC(C(N)=O)(C5)C4)C2)nc1 (single isomer, unassigned) [EXAMPLE 47 Isomer 2, 1-carbamoyl-4-adamantyl 3-(5-carbamoylpyrimidin-2-yl)pyrrolidine-1-carboxylate]",< 0.1 µM,0.0916 µM,,55.6%,
"Cn1c(=O)ccc2cc(C3CCN(C(=O)OC4C5CC6CC(C5)CC4C6)C3)ccc21 (stereo not shown) [EXAMPLE 17, 2-adamantyl 3-(1-methyl-2-oxo-1,2-dihydroquinolin-6-yl)pyrrolidine-1-carboxylate]",< 0.1 µM,0.00196 µM,94.2%,,
